Assay results: patent US10669284B2, “Fused thiazolopyrimidine derivatives as MNKS inhibitors” (LIFEARC, priority 2015, dated 2020)

Assays:
ACVR1B = target: T1, ACVR1B (Homo sapiens, UniProt P36896); experiment: Kinase selectivity screen ACVR1B; conditions: read-out: % inhibition of ACVR1B
T1 sequence (P36896 24-505): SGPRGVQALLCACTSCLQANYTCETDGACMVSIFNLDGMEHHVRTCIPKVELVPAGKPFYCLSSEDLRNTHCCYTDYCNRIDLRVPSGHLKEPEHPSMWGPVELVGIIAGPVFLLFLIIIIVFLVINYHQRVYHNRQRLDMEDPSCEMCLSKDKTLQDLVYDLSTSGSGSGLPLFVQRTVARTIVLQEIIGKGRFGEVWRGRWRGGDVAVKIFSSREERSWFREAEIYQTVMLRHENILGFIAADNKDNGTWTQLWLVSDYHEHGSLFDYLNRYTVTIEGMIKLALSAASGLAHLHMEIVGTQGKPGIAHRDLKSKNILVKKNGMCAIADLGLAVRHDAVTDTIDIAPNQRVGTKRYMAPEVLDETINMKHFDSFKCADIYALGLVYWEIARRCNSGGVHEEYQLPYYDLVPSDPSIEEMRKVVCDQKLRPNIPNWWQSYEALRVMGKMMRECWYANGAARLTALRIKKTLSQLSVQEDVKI

PTK6 = PTK6 (Homo sapiens, UniProt Q13882); experiment: Kinase selectivity screen PTK6; conditions: read-out: % inhibition of PTK6
NUAK1 = target: T2, NUAK1 (Homo sapiens, UniProt O60285); experiment: Kinase selectivity screen NUAK1; conditions: read-out: % inhibition of NUAK1
T2 sequence (O60285 1-661): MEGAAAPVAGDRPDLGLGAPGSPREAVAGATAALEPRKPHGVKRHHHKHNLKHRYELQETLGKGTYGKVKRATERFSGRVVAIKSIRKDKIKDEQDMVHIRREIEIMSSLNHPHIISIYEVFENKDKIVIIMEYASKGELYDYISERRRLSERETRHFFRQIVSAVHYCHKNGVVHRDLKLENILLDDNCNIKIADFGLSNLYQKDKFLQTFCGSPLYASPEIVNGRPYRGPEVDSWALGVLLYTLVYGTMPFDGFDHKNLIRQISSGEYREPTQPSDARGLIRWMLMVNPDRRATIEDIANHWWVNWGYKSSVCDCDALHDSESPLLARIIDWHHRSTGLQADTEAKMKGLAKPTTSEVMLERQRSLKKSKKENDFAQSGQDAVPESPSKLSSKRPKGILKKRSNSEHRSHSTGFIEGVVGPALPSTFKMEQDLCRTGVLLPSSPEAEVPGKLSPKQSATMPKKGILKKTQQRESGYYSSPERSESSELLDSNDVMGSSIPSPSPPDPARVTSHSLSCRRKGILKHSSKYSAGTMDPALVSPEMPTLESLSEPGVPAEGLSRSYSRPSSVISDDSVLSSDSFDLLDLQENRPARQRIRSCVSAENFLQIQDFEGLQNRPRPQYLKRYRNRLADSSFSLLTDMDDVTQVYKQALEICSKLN

DYRK2 = target: T3, DYRK2 (Homo sapiens, UniProt Q92630); experiment: Kinase selectivity screen DYRK2; conditions: read-out: % inhibition of DYRK2
T3 sequence (Q92630 1-601): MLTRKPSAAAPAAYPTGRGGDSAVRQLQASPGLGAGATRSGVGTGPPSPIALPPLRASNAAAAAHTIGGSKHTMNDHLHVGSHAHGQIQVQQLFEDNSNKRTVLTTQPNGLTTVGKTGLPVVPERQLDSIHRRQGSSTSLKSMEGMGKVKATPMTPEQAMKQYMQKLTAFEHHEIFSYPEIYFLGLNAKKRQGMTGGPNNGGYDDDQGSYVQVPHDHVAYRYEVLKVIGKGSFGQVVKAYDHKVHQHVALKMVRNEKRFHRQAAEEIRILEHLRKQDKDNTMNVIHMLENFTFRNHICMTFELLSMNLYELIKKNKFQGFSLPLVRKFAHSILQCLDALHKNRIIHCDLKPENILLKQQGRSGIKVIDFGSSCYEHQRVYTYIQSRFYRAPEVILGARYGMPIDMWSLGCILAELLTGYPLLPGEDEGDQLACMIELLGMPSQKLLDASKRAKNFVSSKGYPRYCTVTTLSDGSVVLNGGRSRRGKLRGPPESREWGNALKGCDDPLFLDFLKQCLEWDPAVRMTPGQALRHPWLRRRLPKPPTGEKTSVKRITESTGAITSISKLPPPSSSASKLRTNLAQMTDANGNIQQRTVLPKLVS

PTK2 = PTK2 (Homo sapiens, UniProt Q05397); experiment: Kinase selectivity screen PTK2; conditions: read-out: % inhibition of PTK2
PTK2, sequence (Q05397 whole entry, species assumed): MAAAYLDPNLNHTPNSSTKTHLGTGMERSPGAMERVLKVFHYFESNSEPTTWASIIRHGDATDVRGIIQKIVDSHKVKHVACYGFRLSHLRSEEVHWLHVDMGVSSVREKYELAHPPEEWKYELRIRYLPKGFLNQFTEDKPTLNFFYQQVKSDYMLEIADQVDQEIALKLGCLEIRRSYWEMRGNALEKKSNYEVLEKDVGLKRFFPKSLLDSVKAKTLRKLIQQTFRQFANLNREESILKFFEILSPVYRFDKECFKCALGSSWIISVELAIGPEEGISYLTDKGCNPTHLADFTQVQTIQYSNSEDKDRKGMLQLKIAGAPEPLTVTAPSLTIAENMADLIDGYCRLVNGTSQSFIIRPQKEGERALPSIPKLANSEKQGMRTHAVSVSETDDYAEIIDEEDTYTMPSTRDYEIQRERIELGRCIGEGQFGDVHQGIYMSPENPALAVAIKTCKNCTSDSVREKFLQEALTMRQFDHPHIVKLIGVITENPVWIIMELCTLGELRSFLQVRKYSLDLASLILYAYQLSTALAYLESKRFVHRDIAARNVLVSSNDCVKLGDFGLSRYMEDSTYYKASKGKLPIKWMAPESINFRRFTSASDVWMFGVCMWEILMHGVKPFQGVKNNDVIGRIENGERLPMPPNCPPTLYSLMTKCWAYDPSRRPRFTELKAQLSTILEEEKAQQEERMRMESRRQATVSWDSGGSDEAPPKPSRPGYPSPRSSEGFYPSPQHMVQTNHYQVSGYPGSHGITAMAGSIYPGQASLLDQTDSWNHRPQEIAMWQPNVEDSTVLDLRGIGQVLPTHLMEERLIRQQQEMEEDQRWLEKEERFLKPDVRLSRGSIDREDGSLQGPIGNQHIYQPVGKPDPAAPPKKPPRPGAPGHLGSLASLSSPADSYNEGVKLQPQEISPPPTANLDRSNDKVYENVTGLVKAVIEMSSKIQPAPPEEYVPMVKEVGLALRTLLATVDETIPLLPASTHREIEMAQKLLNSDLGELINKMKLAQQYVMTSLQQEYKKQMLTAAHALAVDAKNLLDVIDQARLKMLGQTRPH

ALK = ALK (Homo sapiens, UniProt Q9UM73); experiment: Kinase selectivity screen ALK; conditions: read-out: % inhibition of ALK
AURKC = target: T4, AURKC (Homo sapiens, UniProt Q9UQB9); experiment: Kinase selectivity screen AURKC; conditions: read-out: % inhibition of AURKC
T4 sequence (Q9UQB9 1-309): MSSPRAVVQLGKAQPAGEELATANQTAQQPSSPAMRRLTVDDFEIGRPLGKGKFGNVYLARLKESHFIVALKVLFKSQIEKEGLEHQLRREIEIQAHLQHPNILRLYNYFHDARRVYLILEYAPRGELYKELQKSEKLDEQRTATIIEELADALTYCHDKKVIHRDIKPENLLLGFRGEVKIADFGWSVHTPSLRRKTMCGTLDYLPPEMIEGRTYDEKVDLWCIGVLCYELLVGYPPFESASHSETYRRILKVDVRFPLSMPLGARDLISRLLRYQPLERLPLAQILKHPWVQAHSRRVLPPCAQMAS

PRKAA2 = PRKAA2 (Homo sapiens, UniProt P54646); experiment: Kinase selectivity screen PRKAA2; conditions: read-out: % inhibition of PRKAA2
PRKAA2, sequence (P54646 whole entry, species assumed): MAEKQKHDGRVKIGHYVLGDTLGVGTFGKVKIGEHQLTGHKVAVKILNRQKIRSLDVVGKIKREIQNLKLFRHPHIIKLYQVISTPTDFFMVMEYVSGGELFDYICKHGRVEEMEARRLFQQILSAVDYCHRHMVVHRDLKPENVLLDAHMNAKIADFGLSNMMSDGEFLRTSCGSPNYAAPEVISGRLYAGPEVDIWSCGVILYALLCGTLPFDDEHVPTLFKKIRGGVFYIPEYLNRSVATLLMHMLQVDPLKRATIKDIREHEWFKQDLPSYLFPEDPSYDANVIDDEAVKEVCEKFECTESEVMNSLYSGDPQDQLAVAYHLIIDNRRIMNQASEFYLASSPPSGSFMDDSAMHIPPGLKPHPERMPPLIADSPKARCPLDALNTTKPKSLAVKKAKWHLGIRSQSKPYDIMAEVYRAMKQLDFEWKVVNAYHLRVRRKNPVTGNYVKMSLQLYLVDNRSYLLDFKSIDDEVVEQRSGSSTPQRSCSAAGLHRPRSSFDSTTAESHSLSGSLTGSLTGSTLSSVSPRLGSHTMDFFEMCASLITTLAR
PRKAA2, sequence (Q9Y478 whole entry partner, species assumed): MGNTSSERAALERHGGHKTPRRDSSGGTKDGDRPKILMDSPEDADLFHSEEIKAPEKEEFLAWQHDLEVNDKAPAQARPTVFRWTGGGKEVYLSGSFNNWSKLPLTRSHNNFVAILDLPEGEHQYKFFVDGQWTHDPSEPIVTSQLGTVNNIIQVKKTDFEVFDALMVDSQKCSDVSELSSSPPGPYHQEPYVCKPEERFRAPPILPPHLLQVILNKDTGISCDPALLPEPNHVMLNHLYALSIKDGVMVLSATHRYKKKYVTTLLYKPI
PRKAA2, sequence (P54619 whole entry partner, species assumed): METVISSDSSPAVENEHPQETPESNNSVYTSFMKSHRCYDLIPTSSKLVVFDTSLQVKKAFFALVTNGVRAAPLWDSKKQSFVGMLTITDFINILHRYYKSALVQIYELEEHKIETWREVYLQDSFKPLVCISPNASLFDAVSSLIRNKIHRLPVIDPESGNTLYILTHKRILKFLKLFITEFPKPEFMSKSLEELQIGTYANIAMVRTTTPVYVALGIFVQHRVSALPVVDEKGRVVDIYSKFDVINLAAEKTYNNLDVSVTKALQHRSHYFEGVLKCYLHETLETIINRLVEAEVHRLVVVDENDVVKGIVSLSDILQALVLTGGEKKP

PAK4 = PAK4 (Homo sapiens, UniProt O96013); experiment: Kinase selectivity screen PAK4; conditions: read-out: % inhibition of PAK4
PAK4, sequence (O96013 whole entry, species assumed): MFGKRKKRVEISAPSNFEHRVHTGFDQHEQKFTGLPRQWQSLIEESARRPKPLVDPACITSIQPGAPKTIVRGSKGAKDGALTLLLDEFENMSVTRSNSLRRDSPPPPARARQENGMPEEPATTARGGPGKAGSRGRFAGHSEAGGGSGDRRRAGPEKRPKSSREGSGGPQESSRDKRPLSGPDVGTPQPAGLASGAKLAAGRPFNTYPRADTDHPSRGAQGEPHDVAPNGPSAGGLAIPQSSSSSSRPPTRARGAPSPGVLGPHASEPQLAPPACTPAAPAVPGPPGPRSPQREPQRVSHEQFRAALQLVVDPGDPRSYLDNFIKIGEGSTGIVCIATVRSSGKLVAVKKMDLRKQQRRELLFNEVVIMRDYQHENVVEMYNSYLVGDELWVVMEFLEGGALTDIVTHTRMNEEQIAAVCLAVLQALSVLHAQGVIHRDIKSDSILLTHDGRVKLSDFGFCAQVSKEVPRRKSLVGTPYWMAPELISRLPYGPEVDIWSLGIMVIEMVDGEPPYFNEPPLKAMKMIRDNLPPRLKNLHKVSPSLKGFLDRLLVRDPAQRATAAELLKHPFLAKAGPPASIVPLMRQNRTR

LCK = LCK (Homo sapiens, UniProt P06239); experiment: Kinase selectivity screen LCK; conditions: read-out: % inhibition of LCK
LCK, sequence (P06239 whole entry, species assumed): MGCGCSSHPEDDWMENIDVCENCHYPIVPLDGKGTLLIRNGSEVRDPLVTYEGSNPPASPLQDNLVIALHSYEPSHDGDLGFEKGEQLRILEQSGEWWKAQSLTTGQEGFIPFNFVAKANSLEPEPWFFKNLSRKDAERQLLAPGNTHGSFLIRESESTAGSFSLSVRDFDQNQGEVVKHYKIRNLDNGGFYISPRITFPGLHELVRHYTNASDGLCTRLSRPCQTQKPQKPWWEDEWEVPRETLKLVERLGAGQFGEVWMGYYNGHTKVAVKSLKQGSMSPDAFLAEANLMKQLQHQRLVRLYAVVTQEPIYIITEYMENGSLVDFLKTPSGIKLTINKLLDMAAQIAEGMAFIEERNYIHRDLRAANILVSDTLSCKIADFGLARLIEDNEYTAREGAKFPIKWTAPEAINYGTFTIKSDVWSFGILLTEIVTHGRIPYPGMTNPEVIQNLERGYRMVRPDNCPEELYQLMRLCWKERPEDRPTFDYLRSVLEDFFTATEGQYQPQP

EEF2K = EEF2K (Homo sapiens, UniProt O00418); experiment: Kinase selectivity screen EEF2K; conditions: read-out: % inhibition of EEF2K
EEF2K, sequence (O00418 whole entry): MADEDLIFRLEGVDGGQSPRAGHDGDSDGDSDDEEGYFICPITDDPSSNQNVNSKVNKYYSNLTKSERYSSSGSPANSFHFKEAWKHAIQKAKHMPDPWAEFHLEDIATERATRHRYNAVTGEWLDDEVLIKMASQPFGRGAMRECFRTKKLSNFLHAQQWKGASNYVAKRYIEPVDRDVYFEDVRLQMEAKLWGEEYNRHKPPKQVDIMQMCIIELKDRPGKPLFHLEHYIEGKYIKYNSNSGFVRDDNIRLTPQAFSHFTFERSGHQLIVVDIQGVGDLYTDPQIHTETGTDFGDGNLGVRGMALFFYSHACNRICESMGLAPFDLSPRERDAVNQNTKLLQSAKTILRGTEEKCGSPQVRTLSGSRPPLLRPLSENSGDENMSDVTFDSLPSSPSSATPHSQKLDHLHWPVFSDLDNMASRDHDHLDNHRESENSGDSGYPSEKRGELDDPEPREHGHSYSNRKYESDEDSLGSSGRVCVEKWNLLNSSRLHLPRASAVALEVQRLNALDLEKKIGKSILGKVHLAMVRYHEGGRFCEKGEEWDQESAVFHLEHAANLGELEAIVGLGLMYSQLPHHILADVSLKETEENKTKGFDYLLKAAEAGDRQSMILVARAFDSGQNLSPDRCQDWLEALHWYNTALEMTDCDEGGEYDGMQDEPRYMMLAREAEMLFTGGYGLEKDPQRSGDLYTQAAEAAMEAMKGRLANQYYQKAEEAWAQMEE

RPS6KA1 = RPS6KA1 (Homo sapiens, UniProt Q15418); experiment: Kinase selectivity screen RPS6KA1; conditions: read-out: % inhibition of RPS6KA1
RPS6KA1, sequence (Q15418 whole entry, species assumed): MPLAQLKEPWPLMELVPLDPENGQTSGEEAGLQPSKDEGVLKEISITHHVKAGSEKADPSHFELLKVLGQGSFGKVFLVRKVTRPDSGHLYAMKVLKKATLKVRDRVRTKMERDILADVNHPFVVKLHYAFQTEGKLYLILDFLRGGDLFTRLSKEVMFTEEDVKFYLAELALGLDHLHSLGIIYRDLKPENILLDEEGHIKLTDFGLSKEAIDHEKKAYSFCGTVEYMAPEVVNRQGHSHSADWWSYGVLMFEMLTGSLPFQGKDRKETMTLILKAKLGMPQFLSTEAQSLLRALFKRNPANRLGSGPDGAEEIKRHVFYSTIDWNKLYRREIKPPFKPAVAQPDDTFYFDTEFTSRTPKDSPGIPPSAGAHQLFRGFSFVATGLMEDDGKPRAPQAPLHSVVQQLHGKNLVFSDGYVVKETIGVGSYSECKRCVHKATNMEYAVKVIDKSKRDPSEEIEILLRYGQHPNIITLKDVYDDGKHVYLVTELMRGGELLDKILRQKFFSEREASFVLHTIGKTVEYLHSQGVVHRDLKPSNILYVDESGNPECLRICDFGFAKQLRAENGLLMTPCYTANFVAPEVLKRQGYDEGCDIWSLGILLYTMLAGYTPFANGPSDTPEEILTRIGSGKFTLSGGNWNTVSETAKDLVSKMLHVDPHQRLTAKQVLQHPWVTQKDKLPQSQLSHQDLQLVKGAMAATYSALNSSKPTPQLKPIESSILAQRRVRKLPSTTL

SMILES | inhibition at 1 µM (ACVR1B) | inhibition at 1 µM (PTK6) | inhibition at 1 µM (NUAK1) | inhibition at 1 µM (DYRK2) | inhibition at 1 µM (PTK2) | inhibition at 1 µM (ALK) | inhibition at 1 µM (AURKC) | inhibition at 1 µM (PRKAA2) | inhibition at 1 µM (PAK4) | inhibition at 1 µM (LCK) | inhibition at 1 µM (EEF2K) | inhibition at 1 µM (RPS6KA1)
CN(C)CCCNC(=O)c1nc2c(N3CCc4cc(F)ccc43)ncnc2s1 [Example 64, N-[3-(dimethylamino)propyl]-7-(5-fluoroindolin-1-yl)thiazolo[5,4-d]pyrimidine-2-carboxamide] | 15% | 4% | 43% | 44% | 0% | 3% | 15% | 45% | 4% | 0% | 0% | 49%
CC(C)Oc1cc(F)ccc1Nc1ncnc2sc(C(=O)NCC3CCNCC3)nc12 [Example 10, 7-(4-fluoro-2-isopropoxy-anilino)-N-(4-piperidylmethyl)thiazolo[5,4-d]pyrimidine-2-carboxamide] | 6% | 0% | 15% | 7% | 16% | 10% | 14% | 1% | 15% | 12% | 4% | 30%
O=C(NCC1CCNCC1)c1nc2c(N3CCc4cc(F)ccc43)ncnc2s1 [Example 58, 7-(5-fluoroindolin-1-yl)-N-(4-piperidylmethyl)thiazolo[5,4-d]pyrimidine-2-carboxamide] | 0% | 0% | 33% | 21% | 0% | 7% | 5% | 1% | 0% | 0% | 0% | 36%
